The NIST ThermoML archive (doi:10.1016/j.jct.2008.10.002)

Assays:
[1] = excess molar enthalpy (molar enthalpy of mixing); xn = mol fraction of the nth substance listed; conditions: 303.15 K, 101.3 kPa, Liquid
[2] = molar heat capacity at constant pressure; xn = mol fraction of the nth substance listed; conditions: 101.3 kPa, Liquid, Small sample (50 mg) DSC
[3] = xn = mol fraction of the nth substance listed; conditions: 101.3 kPa, Liquid, Vibrating tube method

CCOS(=O)(=O)[O-].CCn1cc[n+](C)c1 [1-ethyl-3-methylimidazolium ethyl sulfate] + O
[1]
Conditions | excess molar enthalpy [kcal/mol]
x1 = 0.0504 | -0.115
x1 = 0.0997 | -0.183
x1 = 0.1468 | -0.219
x1 = 0.2004 | -0.236
x1 = 0.2921 | -0.231
x1 = 0.3935 | -0.204
x1 = 0.4806 | -0.19
x1 = 0.5727 | -0.157
x1 = 0.6687 | -0.124
x1 = 0.8212 | -0.0681

Conditions | mass density, [3] [kg/m3] | molar heat capacity at constant pressure, [2] [J/K/mol]
293.15 K, x1 = 0.0477 | 1084.8 | 92.6
293.15 K, x1 = 0.1033 | 1138.7 | 109.8
293.15 K, x1 = 0.2048 | 1184.3 | 140.4
293.15 K, x1 = 0.2943 | 1203.3 | 167.1
293.15 K, x1 = 0.3847 | 1214.7 | 194.3
293.15 K, x1 = 0.4774 | 1222.5 | 222.7
293.15 K, x1 = 0.5797 | 1228.5 | 254.6
293.15 K, x1 = 0.6632 | 1232 | 281.3
293.15 K, x1 = 0.8092 | 1236.6 | 328.9
293.15 K, x1 = 0.907 | 1238.9 | 360.9
298.15 K, x1 = 0.0477 | 1082.3 | 92.9
298.15 K, x1 = 0.1033 | 1135.4 | 110.5
298.15 K, x1 = 0.2048 | 1180.8 | 141.4
298.15 K, x1 = 0.2943 | 1199.8 | 168.3
298.15 K, x1 = 0.3847 | 1211.3 | 195.7
298.15 K, x1 = 0.4774 | 1219.1 | 224.2
298.15 K, x1 = 0.5797 | 1225 | 256.2
298.15 K, x1 = 0.6632 | 1228.6 | 283.1
298.15 K, x1 = 0.8092 | 1233.2 | 330.9
298.15 K, x1 = 0.907 | 1235.5 | 363.1
303.15 K, x1 = 0.0477 | 1079.6 | 93.3
303.15 K, x1 = 0.1033 | 1132.1 | 111.2
303.15 K, x1 = 0.2048 | 1177.2 | 142.6
303.15 K, x1 = 0.2943 | 1196.3 | 169.7
303.15 K, x1 = 0.3847 | 1207.8 | 197.1
303.15 K, x1 = 0.4774 | 1215.6 | 225.8
303.15 K, x1 = 0.5797 | 1221.6 | 258
303.15 K, x1 = 0.6632 | 1225.2 | 285
303.15 K, x1 = 0.8092 | 1229.8 | 333
303.15 K, x1 = 0.907 | 1232.1 | 365.3
308.15 K, x1 = 0.0477 | 1076.9 | 93.6
308.15 K, x1 = 0.1033 | 1128.7 | 111.9
308.15 K, x1 = 0.2048 | 1173.6 | 143.7
308.15 K, x1 = 0.2943 | 1192.7 | 171
308.15 K, x1 = 0.3847 | 1204.3 | 198.6
308.15 K, x1 = 0.4774 | 1212.2 | 227.5
308.15 K, x1 = 0.5797 | 1218.2 | 259.9
308.15 K, x1 = 0.6632 | 1221.8 | 287.1
308.15 K, x1 = 0.8092 | 1226.4 | 335.3
308.15 K, x1 = 0.907 | 1228.7 | 367.7
313.15 K, x1 = 0.0477 | 1073.9 | 93.9
313.15 K, x1 = 0.1033 | 1125.3 | 112.7
313.15 K, x1 = 0.2048 | 1170 | 144.9
313.15 K, x1 = 0.2943 | 1189.2 | 172.4
313.15 K, x1 = 0.3847 | 1200.8 | 200.3
313.15 K, x1 = 0.4774 | 1208.7 | 229.3
313.15 K, x1 = 0.5797 | 1214.8 | 261.8
313.15 K, x1 = 0.6632 | 1218.4 | 289.2
313.15 K, x1 = 0.8092 | 1223 | 337.7
313.15 K, x1 = 0.907 | 1225.3 | 370.3
318.15 K, x1 = 0.0477 | 1071 | 94.4
318.15 K, x1 = 0.1033 | 1121.8 | 113.6
318.15 K, x1 = 0.2048 | 1166.4 | 146.2
318.15 K, x1 = 0.2943 | 1185.6 | 173.9
318.15 K, x1 = 0.3847 | 1197.3 | 202
318.15 K, x1 = 0.4774 | 1205.3 | 231.2
318.15 K, x1 = 0.5797 | 1211.3 | 263.9
318.15 K, x1 = 0.6632 | 1215 | 291.6
318.15 K, x1 = 0.8092 | 1219.6 | 340.3
318.15 K, x1 = 0.907 | 1221.9 | 373
